“Also recorded” adds a separate entry of the source.
Key:
[1] = tested on: Akt phosphorylation at Ser 473; assay: Western blot analysis of Akt phosphorylation in SQ2OB cells; type: cell-based, human
Text: Using Western blot analysis, a human head-and-neck cancer cell line, SQ2OB, containing a constitutively-active EGFR receptor and thus, increased signaling through PI3K, was examined for Akt phosphorylation.

[2] = tested on: SQ20B; assay: Clonogenic assay, radiation sensitization, SQ20B cells; type: cell-based, human; conditions: SQ2OB cells, 5 μM nelfinavir + 2 Gy radiation; control 70%
Description: (§1) Cultures of cells in log growth phase were counted and plated in 60-mm dishes containing 4 ml of media. The cells were allowed to attach and nelfinavir was added to cultures at least one hour prior to irradiation. Cells were irradiated with a Mark I cesium irradiator (J. L. Shepherd, San Fernando, Calif.) at a dose rate of 1.6 Gy/min. Colonies were stained and counted 10-14 days after irradiation. A light box was used to assist in counting colonies. The surviving fraction was calculated by dividing the number of colonies formed by the number of cells plated times plating efficiency (Table 1). Each point value represents the mean surviving fraction from at least six replicate dishes.

[3] = tested on: T24; assay: Clonogenic assay, radiation sensitization, T24 cells; type: cell-based; conditions: T24, 2 Gy, nelfinavir added at least one hour prior to irradiation; mean +/- spread
Description: as §1

[4] = tested on: MIAPACA2; assay: Clonogenic assay, radiation sensitization, MIAPACA2 cells; type: cell-based; conditions: MIAPACA2, 2 Gy, nelfinavir added at least one hour prior to irradiation; mean +/- spread
Description: as §1

[5] = tested on: A549; assay: Clonogenic assay, radiation sensitization, A549 cells; type: cell-based; conditions: A549, 2 Gy, nelfinavir added at least one hour prior to irradiation; mean +/- spread
Description: as §1

[6] = tested on: REF; assay: Clonogenic assay, radiation sensitization, REF cells; type: cell-based; conditions: 2 Gy, nelfinavir added at least one hour prior to irradiation, mean +/- spread
Description: as §1

[7] = tested on: SQ2OB xenograft tumors; assay: In vivo to in vitro clonogenic assay in nude mice with SQ2OB tumors
Description: In an in vivo experiment to examine the nelfinavir-mediated radiation sensitization of tumors, tumors in animals were radiation-sensitized using nelfinavir. FIG. 5 illustrates the results of an in vivo to in vitro clonogenic assay in nude mice with SQ2OB tumors. Mice were treated with 8 Gy radiation, with and without nelfinavir at 0.6 mg/day. […] FIG. 6 illustrates the results of in vivo to in vitro clonogenic assays used to examine in vivo sensitization of tumor cells to drugs. Nelfinavir was delivered to mice at 0.6 mg/day via osmotic pump. The mice had SQ2OB xenograft tumors on hind leg. The pump was placed in mouse 2 days prior to experiment. On the day of experiment, the mouse was anesthetized and irradiated to 8 Gy. The tumor was then harvested and a cell suspension made. The cells were plated and the plating efficiency determined. The result indicted the number of cells that were viable and able to reproduce by forming colonies in each individual group (plating efficiency).

[8] = tested on: Akt phosphorylation; assay: Western blot of Akt phosphorylation in white blood cells of HIV patients; type: in vivo, human; conditions: HIV patients taking nelfinavir vs. HIV patients not actively using nelfinavir
Text: As a proof of principle, it was examined whether there was down-regulation of Akt in HIV patients who are being actively treated with HPIs. Blood samples were obtained from HIV patients on courses of various combinations of drugs. WBCs were isolated and stained for Akt using a Western Blot. Patients taking nelfinavir had decreased Akt phosphorylation compared to the levels of Akt phosphorylation detected in HIV patients who were not actively using nelfinavir (FIG. 7).

[9] = tested on: non-small cell lung carcinoma; conditions: randomized phase II trial; cited from earlier work

## Cc1c(O)cccc1C(=O)N[C@@H](CSc1ccccc1)[C@H](O)CN1C[C@H]2CCCC[C@H]2C[C@H]1C(=O)NC(C)(C)C [nelfinavir]
[1]; 5 μM nelfinavir
  Akt phosphorylation at Ser 473: down-regulation
[1]; 10 μM nelfinavir
  Akt phosphorylation at Ser 473: abolished
[2]
  surviving fraction after 2 Gy (SF2): 40%
[3]
  nelfinavir SF2: 0.452 +/− 0.023
[4]
  nelfinavir SF2: 0.526 +/− 0.040
[5]
  nelfinavir SF2: 0.410 +/− 0.062
[6]
  nelfinavir SF2: 0.397 +/− 0.054
[7]; nelfinavir 0.6 mg/day + 8 Gy radiation
  plating efficiency of tumor cells derived from the mice: synergistically decreased; also recorded: significant increase in cell kill
[7]; nelfinavir alone 0.6 mg/day, no radiation
  plating efficiency of tumor cells derived from the mice: did not result in a change; also recorded: no toxicity
[8]
  Akt phosphorylation in white blood cells: decreased

## COc1cc2ncnc(Nc3ccc(F)c(Cl)c3)c2cc1OCCCN1CCOCC1 [Iressa, gefitinib]
[9]
  radiographic response rate: ~10%
